Data reported in patent publication US20230061319A1, “METHODS OF TREATING TUMORS” (CoImmune, Inc., priority 2020, published 2023).

What was measured:
[1] = tested on: healthy donor PBMC T cells; assay: Healthy donor PBMCs stimulated with autologous PME-CD40L-CMV DCs with mRCC patient plasma with or without everolimus; assay type: cell-based, human
Protocol: (§1) PBMCs and DCs were thawed and washed in PBS (Lonza) prior to counting. Post maturation electroporated monocyte-derived dendritic cells (PME-CD40L) were generated from healthy donors as described in DeBenedette MA. et al., J Immunol. 181(8):5296-5305 (2008) (incorporated herein by reference in its entirety), and were co-electroporated with RNA encoding the pp65 CMV protein and RNA encoding CD40L. Viable cell counts were performed using BD TruCount Absolute Counting Tubes and propidium iodide (BD Biosciences) by flow cytometry. PBMCs and DCs were re-suspended in X-Vivo15 (with gentamicin and phenol red) (Lonza) containing 10% normal human AB serum (Valley biomedical). […] Frozen PBMC vials from 2 HLA-mismatched healthy donors were thawed and counted. […] Purified Mouse anti-human CD3 (clone OKT3, BD Biosciences) was used to stimulate healthy donor PBMCs in culture.
HLA-mismatched healthy donor PBMCs were mixed and cultured for 7 days in the presence of 2% mRCC patient plasma and with or without 20 ng of everolimus added on day 0, and the frequency of CD28^+ memory T cells was determined. […] To expand the understating whereby everolimus can reduce the immune suppressive impact of mRCC, patient plasma PBMCs were stimulated with autologous DCs presenting the pp65 CMV antigen. Healthy donor PBMCs and autologous DCs were mixed and cultured for 6 days in the presence of 2% mRCC patient plasma and with or without 20 ng of everolimus added on day 0.
Furthermore, the impact of everolimus on the suppressive effect of mRCC patient plasma when PBMCs were stimulated with autologous DCs was examined.
(§2) To understand the ability of everolimus to restore the frequency of CD25^+CD28^+ T cells, the expression of both CD25 and CD28 on CD8 T cells stimulated in the MLR or with autologous DCs in the presence of mRCC patient plasma was measured by the geometric mean fluorescence intensity (MFI).

[2] = than rapamycin (sirolimus); cited from earlier work
[3] = tested on: healthy donor PBMC T cells; assay: Two-way MLR of HLA-mismatched healthy donor PBMCs with mRCC patient plasma with or without everolimus; assay type: cell-based, human; details: MLR 7 days, 2% mRCC patient plasma
Protocol: as §1
Given the observation that patients enrolled in the ADAPT study who received everolimus as 2nd line therapy after receiving DC therapy had better clinical outcomes, the concept that everolimus may reverse the immune suppressive activity of mRCC patient plasma and augment T cell responses was investigated. HLA-mismatched healthy donor PBMCs were mixed and cultured for 7 days in the presence of 2% mRCC patient plasma and with or without 20 ng of everolimus added on day 0, and the frequency of CD28^+ memory T cells was determined. […] However, this restoration was not statistically significant (p<0.087) when the suppressive activity of plasma samples collected from six individual mRCC patients was tested (FIG. 17C). In contrast, an increase in the frequency of proliferating CD28^-CD4 T cells was […] with plasma addition, which could be reversed with the addition of everolimus (FIG. 17D). A similar pattern was detected for CD8 T cells (a decrease in the frequency of proliferating CD28^+ CD8 T cells (FIG. 17E) and increase in the frequency of proliferating CD28^-CD8 T cells (FIG. 17F)) in the presence of plasma, which the addition of everolimus could reverse. […] To expand the understating whereby everolimus can reduce the immune suppressive impact of mRCC, patient plasma PBMCs were stimulated with autologous DCs presenting the pp65 CMV antigen. Healthy donor PBMCs and autologous DCs were mixed and cultured for 6 days in the presence of 2% mRCC patient plasma and with or without 20 ng of everolimus added on day 0. A small but reproducible frequency of proliferating CD28^+ CD4 T cells was induced, but very few CD28^-CD4 T cells (FIG. 18A left panel), which is unlike the CD4 T cell response seen in the MLR. […] A low frequency of proliferating CD28^- CD4 T cells was detected, and everolimus has little impact on the frequency of these cells (FIG. 18D).
Given the observation that plasma suppression selectively impacts the frequency of CD28^+ T cells and everolimus mediates a reduced suppression of this memory phenotype, the CD28^+ T cell subset was further characterized. HLA-mismatched healthy donor PBMCs were mixed and cultured for 7 days in the presence of 2% mRCC patient plasma and with or without 20 ng of everolimus added on day 0. […] Both the expression of CD25 and CD28 receptors on T cells are critical for full differentiation of memory T cells.
as §2

[4] = autologous DCs 6 days, 2% mRCC patient plasma, 20 ng everolimus
[5] = autologous DCs, mRCC patient plasma, everolimus, statistically significant
[6] = 20 ng everolimus, statistically significant, six plasma samples

**Q.** With `CO[C@H]1C[C@@H]2CC[C@@H](C)[C@@](O)(O2)C(=O)C(=O)N2CCCC[C@H]2C(=O)O[C@H]([C@H](C)C[C@@H]2CC[C@@H](OCCO)[C@H](OC)C2)CC(=O)[C@H](C)/C=C(\C)[C@@H](O)[C@@H](OC)C(=O)[C@H](C)C[C@H](C)/C=C/C=C/C=C/1C` [everolimus] as the compound, how does the “expression of CD25 on CD8 T cells (MFI)” value [1, 4] read?
**A.** statistically significant increase

**Q.** And the “expression of CD28 on CD8 T cells (MFI)” value [1, 4]?
**A.** statistically significant increase

**Q.** And the “frequency of proliferating CD28- CD4 T cells” value [1, 4]?
**A.** little impact

**Q.** What about the “frequency of proliferating CD28+ CD4 T cells suppressed by mRCC patient plasma” value ([1]; autologous DCs 6 days, 2% mRCC patient plasma, 20 ng everolimus on day 0, not statistically significant (p<0.283)) of the same compound?
**A.** partially restored

**Q.** And the “plasma mediated suppression of proliferating CD28+ CD8 T cells” value ([1]; autologous DCs 6 days, 2% mRCC patient plasma, 20 ng everolimus, p< 0.0002)?
**A.** partially reversed

**Q.** What about the “frequency of proliferating CD28- CD8 T cells” value ([1]; autologous DCs 6 days, 2% mRCC patient plasma, 20 ng everolimus, p<0.92) of the same compound?
**A.** minimal ability to decrease

**Q.** And the “frequency of CD25+CD28+ CD4 T cells” value ([1]; autologous DCs, mRCC patient plasma, everolimus, did not reach statistical significance)?
**A.** partially restored

**Q.** What about the “frequency of CD25+CD28+ CD8 T cells” value [1, 5] of the same compound?
**A.** partially restore

**Q.** And the “frequency of CD25+CD28- CD8 T cells” value [1, 5]?
**A.** partially restore

**Q.** And the pharmokinetics [2]?
**A.** more favorable

**Q.** And the “expression of CD25 on CD8 T cells (MFI)” value ([3]; 20 ng everolimus)?
**A.** statistically significant increase

**Q.** And the “expression of CD28 on CD8 T cells (MFI)” value ([3]; 20 ng everolimus)?
**A.** statistically significant increase

**Q.** And the “plasma-induced change in frequency of proliferating CD28- CD4 T cells” value ([3]; 20 ng everolimus on day 0)?
**A.** reversed

**Q.** What about the “frequency of proliferating CD28+ CD4 T cells reduced by mRCC patient plasma” value ([3]; 20 ng everolimus on day 0, not statistically significant (p<0.087), six plasma samples) of the same compound?
**A.** partially restored

**Q.** And the “frequency of CD25+CD28- CD8 T cells among CD25+ CD8 T cells” value ([3]; 20 ng everolimus, p< 0.001)?
**A.** no longer represented the dominant population

**Q.** What about the “frequency of CD25+CD28+ CD8 T cells” value ([3]; 20 ng everolimus, p< 0.0061) of the same compound?
**A.** partial restoration

**Q.** What about the “frequency of CD25+CD28+ CD4 T cells” value ([3]; 20 ng everolimus, p< 0.045) of the same compound?
**A.** partial restoration

**Q.** And the “plasma-induced decrease in frequency of proliferating CD28+ CD8 T cells” value [3, 6]?
**A.** reverse

**Q.** And the “plasma-induced increase in frequency of proliferating CD28- CD8 T cells” value [3, 6]?
**A.** reverse
